Assay results from US9957263B2, “Bromodomain inhibitors” (AbbVie Inc., priority 2013, dated 2018).

Experiments:
[1] = biological target: BRD4 (BDI_K57-E168) (Homo sapiens (Human), UniProt O60885); assay: TR-FRET bromodomain binding assay, BRD4 first bromodomain; conditions: His-tagged BD1, Alexa647-labeled probe 100 nM
Method: (§1) A time-resolved fluorescence resonance energy transfer (TR-FRET) assay was used to determine the affinities of compounds of the Examples listed in Table 1 for each bromodomain of BRD4. His-tagged first (BD1: amino acids K57-E168) and second (BD2: amino acids E352-E168) bromodomains of BRD4 were expressed and purified. An Alexa647-labeled BET-inhibitor was used as the fluorescent probe in the assay.
(§2) Compound dilution series were prepared in DMSO via a 3-fold serial dilution from 2.5 mM to 42 nM. Compounds were then diluted 6:100 in assay buffer (20 mM Sodium Phosphate, pH 6.0, 50 mM NaCl, 1 mM Ethylenediaminetetraacetic acid disodium salt dihydrate, 0.01% Triton X-100, 1 mM DL-Dithiothreitol) to yield 3× working solutions. Six microliters (μL) of the working solution was then transferred to white, low-volume assay plates (Costar #3673). A 1.5× assay mixture containing His-tagged bromodomain, Europium-conjugated anti-His antibody (Invitrogen PV5596) and the Alexa-647-conjugated probe molecule was also prepared. Twelve μL of this solution were added to the assay plate to reach a final volume of 18 μL. The final concentration of 1× assay buffer contains 2% DMSO, 50 μM-0.85 nM compound, 8 nM His-tagged bromodomain, 1 nM Europium-conjugated anti-His-tag antibody and 100 nM or 30 nM probe (for BDI or BDII, respectively). After a one-hour incubation at room temperature, TR-FRET ratios were determined using an Envision multilabel plate reader (Ex 340, Em […]).
(§3) TR-FRET data were normalized to the means of 24 no-compound controls (“high”) and 8 controls containing 1 μM un-labeled probe (“low”). Percent inhibition was plotted as a function of compound concentration and the data were fit with the 4 parameter logistic equation to obtain IC50s. Inhibition constants (Ki) were calculated from the IC50s, probe Kd and probe concentration. Typical Z′ values were between 0.65 and 0.75. The minimum significant ratio was determined to evaluate assay reproducibility (Eastwood et al., (2006) J Biomol Screen, 11: 253-261). The MSR was determined to be 2.03 for BDI and 1.93 for BDII, and a moving MSR (last six run MSR overtime) for both BDI and BDII was typically <3.

[2] = biological target: BRD4 (BDII_E352-M457) (Homo sapiens (Human), UniProt O60885); assay: TR-FRET bromodomain binding assay, BRD4 second bromodomain; conditions: His-tagged BD2, Alexa647-labeled probe 30 nM
Method: as §1, §2, §3

Compound	Ki [1] [nM]	Ki [2] [nM]
CCS(=O)(=O)c1ccc(Oc2c(C)cccc2Cl)c(-c2cn(C)c(=O)c3[nH]c(C(=O)NCC(=O)N4CCCCC4)cc23)c1 [Example 122, 4-[2-(2-chloro-6-methylphenoxy)-5-(ethylsulfonyl)phenyl]-6-methyl-7-oxo-N-[2-oxo-2-(piperidin-1-yl)ethyl]-6,7-dihydro-1H-pyrrolo[2,3-c]pyridine-2-carboxamide]	39.1	7.58
Cn1cc(-c2cc(S(C)(=O)=O)ccc2Oc2cccc(NCc3cccc(C#N)c3)c2)c2cc[nH]c2c1=O [Example 60, 3-[({3-[2-(6-methyl-7-oxo-6,7-dihydro-1H-pyrrolo[2,3-c]pyridin-4-yl)-4-(methylsulfonyl)phenoxy]phenyl}amino)methyl]benzonitrile]	7.9	2
CCS(=O)(=O)Nc1cc(-c2cn(C)c(=O)c3[nH]ccc23)c(Oc2ccc(F)cc2F)cc1C(=O)O [Example 11, 5-(2,4-difluorophenoxy)-2-[(ethylsulfonyl)amino]-4-(6-methyl-7-oxo-6,7-dihydro-1H-pyrrolo[2,3-c]pyridin-4-yl)benzoic acid]	0.8	1
Cn1cc(-c2cc(S(C)(=O)=O)ccc2N[C@H]2CC[C@H](NCc3ccc4ccccc4c3)CC2)c2cc[nH]c2c1=O [Example 110, 6-methyl-4-[5-(methylsulfonyl)-2-({trans-4-[(naphthalen-2-ylmethyl)amino]cyclohexyl}amino)phenyl]-1,6-dihydro-7H-pyrrolo[2,3-c]pyridin-7-one]	1.1	2.2
COc1ccc(CCC(=O)N2CCC(Nc3ccc(S(C)(=O)=O)cc3-c3cn(C)c(=O)c4[nH]ccc34)CC2)c(OC)c1OC [Example 92, 6-methyl-4-[5-(methylsulfonyl)-2-({1-[3-(2,3,4-trimethoxyphenyl)propanoyl]piperidin-4-yl}amino)phenyl]-1,6-dihydro-7H-pyrrolo[2,3-c]pyridin-7-one]	15	33
CCNC(=O)c1cc2c(-c3cc(S(=O)(=O)CC)ccc3Oc3c(C)cccc3CN3CCCCC3)cn(C)c(=O)c2[nH]1 [Example 147, N-ethyl-4-{5-(ethylsulfonyl)-2-[2-methyl-6-(piperidin-1-ylmethyl)phenoxy]phenyl}-6-methyl-7-oxo-6,7-dihydro-1H-pyrrolo[2,3-c]pyridine-2-carboxamide]	761	57.5
Cn1cc(-c2cc(S(C)(=O)=O)ccc2Oc2cccc(C(=O)NC[C@H]3CCCO3)c2)c2cc[nH]c2c1=O [Example 34, 3-[2-(6-methyl-7-oxo-6,7-dihydro-1H-pyrrolo[2,3-c]pyridin-4-yl)-4-(methylsulfonyl)phenoxy]-N-[(2R)-tetrahydrofuran-2-ylmethyl]benzamide]	15	3.6
Cc1cccc(S(=O)(=O)Nc2cccc(Oc3ccc(S(C)(=O)=O)cc3-c3cn(C)c(=O)c4[nH]ccc34)c2)c1 [Example 50, 3-methyl-N-{3-[2-(6-methyl-7-oxo-6,7-dihydro-1H-pyrrolo[2,3-c]pyridin-4-yl)-4-(methylsulfonyl)phenoxy]phenyl}benzenesulfonamide]	3.4	1.2
CCNC(=O)c1cc2c(-c3ccc(C(=O)N(C)C4CCN(OC(=O)CC)CC4)cc3Oc3c(C)cccc3C)cn(C)c(=O)c2[nH]1 [Example 154, 4-[2-(2,6-dimethylphenoxy)-4-{methyl[1-(propanoyloxy)piperidin-4-yl]carbamoyl}phenyl]-N-ethyl-6-methyl-7-oxo-6,7-dihydro-1H-pyrrolo[2,3-c]pyridine-2-carboxamide]	1040	13.7
Cc1cccc(C)c1Oc1ccc(S(C)(=O)=O)cc1-c1cn(C)c(=O)c2[nH]c(-c3nc(-c4cccnc4)no3)cc12 [Example 138, 4-[2-(2,6-dimethylphenoxy)-5-(methylsulfonyl)phenyl]-6-methyl-2-[3-(pyridin-3-yl)-1,2,4-oxadiazol-5-yl]-1,6-dihydro-7H-pyrrolo[2,3-c]pyridin-7-one]	88.5	7.38
Cn1cc(-c2cc(S(C)(=O)=O)ccc2Oc2ccc(F)cc2F)c2cc(CN3CCC(N4CCOCC4)CC3)[nH]c2c1=O [Example 130, 4-[2-(2,4-difluorophenoxy)-5-(methylsulfonyl)phenyl]-6-methyl-2-{[4-(morpholin-4-yl)piperidin-1-yl]methyl}-1,6-dihydro-7H-pyrrolo[2,3-c]pyridin-7-one]	10.1	108
Cn1cc(-c2cc(S(C)(=O)=O)ccc2Oc2cccc(NS(=O)(=O)c3cccc(F)c3)c2)c2cc[nH]c2c1=O [Example 40, 3-fluoro-N-{3-[2-(6-methyl-7-oxo-6,7-dihydro-1H-pyrrolo[2,3-c]pyridin-4-yl)-4-(methylsulfonyl)phenoxy]phenyl}benzenesulfonamide]	5.4	2
Cn1cc(-c2cc(S(C)(=O)=O)ccc2NC2CCN(Cc3cccs3)CC2)c2cc[nH]c2c1=O [Example 89, 6-methyl-4-[5-(methylsulfonyl)-2-{[1-(thiophen-2-ylmethyl)piperidin-4-yl]amino}phenyl]-1,6-dihydro-7H-pyrrolo[2,3-c]pyridin-7-one]	22	44
CCS(=O)(=O)c1ccc(OCC2CC2(F)F)c(-c2cn(C)c(=O)c3[nH]c(CN4CCN(c5cnccn5)CC4)cc23)c1 (centres unmarked) [Example 18, 4-{2-[(2,2-difluorocyclopropyl)methoxy]-5-(ethylsulfonyl)phenyl}-6-methyl-2-{[4-(pyrazin-2-yl)piperazin-1-yl]methyl}-1,6-dihydro-7H-pyrrolo[2,3-c]pyridin-7-one]	4.4	48
CCS(=O)(=O)Nc1cc(-c2cn(C)c(=O)c3[nH]ccc23)c(Oc2ccc(F)cc2F)cc1CN1CCCC1c1ccccc1 (centres unmarked) [Example 14, N-{4-(2,4-difluorophenoxy)-5-(6-methyl-7-oxo-6,7-dihydro-1H-pyrrolo[2,3-c]pyridin-4-yl)-2-[(2-phenylpyrrolidin-1-yl)methyl]phenyl}ethanesulfonamide]	71	14
Cn1cc(-c2cc(S(C)(=O)=O)ccc2Oc2cccc(NCc3ccc(C#N)cc3)c2)c2cc[nH]c2c1=O [Example 61, 4-[({3-[2-(6-methyl-7-oxo-6,7-dihydro-1H-pyrrolo[2,3-c]pyridin-4-yl)-4-(methylsulfonyl)phenoxy]phenyl}amino)methyl]benzonitrile]	3.7	1.3
CCNC(=O)c1cc2c(-c3cc(S(=O)(=O)CC)ccc3Oc3c(C)cccc3CN3CCOCC3)cn(C)c(=O)c2[nH]1 [Example 146, N-ethyl-4-{5-(ethylsulfonyl)-2-[2-methyl-6-(morpholin-4-ylmethyl)phenoxy]phenyl}-6-methyl-7-oxo-6,7-dihydro-1H-pyrrolo[2,3-c]pyridine-2-carboxamide]	3280	50.1
Cn1cc(-c2cc(S(C)(=O)=O)ccc2NC2CCN(S(=O)(=O)c3ccccc3)CC2)c2cc[nH]c2c1=O [Example 84, 6-methyl-4-[5-(methylsulfonyl)-2-{[1-(phenylsulfonyl)piperidin-4-yl]amino}phenyl]-1,6-dihydro-7H-pyrrolo[2,3-c]pyridin-7-one]	4.7	8.9
Cn1cc(-c2cc(S(C)(=O)=O)ccc2Oc2cccc(NCc3ccc(F)cc3Cl)c2)c2cc[nH]c2c1=O [Example 72, 4-[2-{3-[(2-chloro-4-fluorobenzyl)amino]phenoxy}-5-(methylsulfonyl)phenyl]-6-methyl-1,6-dihydro-7H-pyrrolo[2,3-c]pyridin-7-one]	7.4	4.1
